Values of other authors, collected in US11712576B2, “Method and apparatus for cancer treatment” (Minnesota Medical Physics LLC, priority 2018, dated 2023).

Tests used:
[1] = oral doses of 4 mg twice a day over a week period
[2] = tested on: human glioblastoma U87MG cancer cells; conditions: agonist 100 nM combined with EFS (Helmholtz coils)
tumor = conditions: concentration of 100 μM
[3] = tested on: melanoma, colon, prostate carcinoma, lymphoma, pancreatic and hepatocellular carcinomas
adenosine receptor A2aAR = adenosine receptor A2aAR (Homo sapiens, UniProt P29274)
adenosine receptor A2aAR, sequence (P29274 whole entry): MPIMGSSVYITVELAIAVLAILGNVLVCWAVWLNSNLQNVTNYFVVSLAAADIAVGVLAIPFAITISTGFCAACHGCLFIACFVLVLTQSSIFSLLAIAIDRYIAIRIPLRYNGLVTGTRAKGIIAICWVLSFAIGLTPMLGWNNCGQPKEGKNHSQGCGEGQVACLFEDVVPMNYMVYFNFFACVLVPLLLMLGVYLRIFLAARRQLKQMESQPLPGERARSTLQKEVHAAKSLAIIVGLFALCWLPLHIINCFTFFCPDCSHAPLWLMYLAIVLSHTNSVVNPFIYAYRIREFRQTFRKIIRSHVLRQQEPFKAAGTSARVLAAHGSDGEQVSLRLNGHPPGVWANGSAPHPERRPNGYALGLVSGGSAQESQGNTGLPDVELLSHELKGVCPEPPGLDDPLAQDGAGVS

lung cancer cells Lu-65 = conditions: highest concentrations in mM range (0.01-10 mM tested), 48 hours

In the case of `CNC(=O)[C@H]1O[C@@H](n2cnc3c(NCc4cccc(I)c4)ncnc32)[C@H](O)[C@@H]1O` [CF101], the “apoptosis of cancer cells (normal cells refractory)” value (cancer cells) is listed as “induce apoptosis of cancer cells” and the tolerability [1] is listed as “well tolerated”.
In the case of `CNC(=O)[C@H]1O[C@@H](n2cnc3c(NCc4cccc(I)c4)nc(Cl)nc32)[C@H](O)[C@@H]1O` [CI-IB-MECA], the “increase in apoptosis attributed to EFS over agonist alone” value [2] is listed as 25-30%, the “apoptosis of cancer cells (normal cells refractory)” value (cancer cells) is listed as “induce apoptosis of cancer cells” and the “effect on tumor growth” value (tumor) is listed as “only a slowdown of tumor growth”. For the same compound, the “effect on metastases, migrating mobility and proliferation of cancer cells” value [3] was “reduction of metastases, migrating mobility of cancer cells and inhibition of proliferation”.
For `CNC(=O)[C@H]1O[C@@H](n2cnc3c(NCc4cccc(I)c4)ncnc32)[C@H](O)[C@@H]1O` [IB-MECA], the “effect on metastases, migrating mobility and proliferation of cancer cells” value [3] is given as “reduction of metastases, migrating mobility of cancer cells and inhibition of proliferation”.
For `CNC(=O)c1cnn(-c2nc(N)c3ncn([C@@H]4O[C@H](CO)[C@@H](O)[C@H]4O)c3n2)c1` [Lexiscan], the side effects (BBB; doses used for cardiac perfusion) is listed as “strong, sometimes life-threatening side effects” and the “permeation of the BBB” value (BBB; in vivo) is listed as “substantial permeation of the BBB”.
For `Nc1nc2c(cnn2CCc2ccccc2)c2nc(-c3ccco3)nn12` [SCH-58261], the “selectivity for A2aAR over the other adenosine receptors” value (adenosine receptor A2aAR) is given as “more than 50 fold”.
In the case of `Nc1ncnc2c1ncn2[C@@H]1O[C@H](CO)[C@@H](O)[C@H]1O` [adenosine], the cancer cells destroyed (lung cancer cells Lu-65) is listed as 100%.
